In patent publication US11220504B2, “Pyrrolo[3,2-d] pyrimidine derivatives for the treatment of viral infections and other diseases” (JANSSEN SCIENCES IRELAND UNLIMITED COMPANY, priority 2012, dated 2022):

Experiments:
[1] = biological target: T1, human TLR7 (Homo sapiens, UniProt Q9NYK1); experiment: TLR7 cellular reporter assay (HEK293, NFκB-luc); type: cell-based; conditions: HEK293 cells transfected with CMV-TLR7 and NFκB-luc, 6 hours incubation; lowest effective concentration
T1 construct: expressed in transfected cells; host or cells: HEK293 cells, transient transfection with CMV-TLR7 plasmid and NFκB-luc plasmid
T1 sequence (Q9NYK1 27-1049): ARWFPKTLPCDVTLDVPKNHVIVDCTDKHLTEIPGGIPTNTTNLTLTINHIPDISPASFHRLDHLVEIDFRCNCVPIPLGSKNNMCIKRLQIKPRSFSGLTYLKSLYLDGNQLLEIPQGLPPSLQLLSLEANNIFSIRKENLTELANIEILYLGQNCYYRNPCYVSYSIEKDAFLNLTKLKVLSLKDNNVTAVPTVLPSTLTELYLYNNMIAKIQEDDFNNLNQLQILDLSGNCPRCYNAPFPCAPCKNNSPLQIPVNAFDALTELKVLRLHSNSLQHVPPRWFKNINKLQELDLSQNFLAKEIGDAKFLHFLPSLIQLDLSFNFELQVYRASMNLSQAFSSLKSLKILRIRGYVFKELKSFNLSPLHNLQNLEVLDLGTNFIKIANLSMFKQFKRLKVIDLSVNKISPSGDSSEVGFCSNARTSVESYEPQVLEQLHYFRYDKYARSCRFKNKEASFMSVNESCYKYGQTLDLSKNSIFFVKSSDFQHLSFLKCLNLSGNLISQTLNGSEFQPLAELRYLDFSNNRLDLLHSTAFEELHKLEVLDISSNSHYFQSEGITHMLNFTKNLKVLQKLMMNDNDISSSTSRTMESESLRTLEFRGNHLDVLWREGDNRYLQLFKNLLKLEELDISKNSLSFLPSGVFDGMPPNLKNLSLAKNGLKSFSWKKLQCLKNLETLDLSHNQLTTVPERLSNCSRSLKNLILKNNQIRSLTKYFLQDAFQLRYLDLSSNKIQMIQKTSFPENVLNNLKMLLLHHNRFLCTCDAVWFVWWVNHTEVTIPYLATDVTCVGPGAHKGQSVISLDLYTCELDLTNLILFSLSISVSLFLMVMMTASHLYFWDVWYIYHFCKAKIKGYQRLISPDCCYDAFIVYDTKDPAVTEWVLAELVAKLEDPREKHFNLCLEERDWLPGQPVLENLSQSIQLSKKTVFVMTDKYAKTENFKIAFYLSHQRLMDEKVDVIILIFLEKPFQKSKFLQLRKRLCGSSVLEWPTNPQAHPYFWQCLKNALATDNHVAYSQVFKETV
Experimental: (§1) The ability of compounds to activate human TLR7 and/or TLR8 was assessed in a cellular reporter assay using HEK293 cells transiently transfected with a TLR7 or TLR8 expression vector and NFκB-luc reporter construct.
(§2) Briefly, HEK293 cells were grown in culture medium (DMEM supplemented with 10% FCS and 2 mM Glutamine). […] Thirty microliters of cells were then dispensed into each well in 384-well plates, where 10 μL of compound in 4% DMSO was already present. Following 6 hours incubation at 37° C., 5% CO2, the luciferase activity was determined by adding 15 μL of Steady Lite Plus substrate (Perkin Elmer) to each well and readout performed on a ViewLux ultraHTS microplate imager (Perkin Elmer). Dose response curves were generated from measurements performed in quadruplicates.

[2] = tested on: interferon-stimulated responsive elements (ISRE); experiment: Activation of ISRE promoter elements by conditioned media from PBMC (HEK-ISREluc); type: cell-based, human; conditions: conditioned media from PBMC transferred to HEK-ISREluc cells, 24 hours, lowest effective concentration; for minimal effective concentration: Homo sapiens, read-out: PBMC LEC
Experimental: The potential of compounds to induce IFN-I was also evaluated by measuring the activation of interferon-stimulated responsive elements (ISRE) by conditioned media from PBMC. The ISRE element of sequence […] (SEQ. ID NO:1) is highly responsive to the STAT1-STAT2-IRF 9 transcription factor, activated upon binding of IFN-I to their receptor IFNAR (Clontech, PT3372-5W). […] A HEK293 cell line stably transfected with pISRE-Luc (HEK-ISREluc) was established to profile of the conditioned PBMC cell culture media.
Briefly, PBMCs were prepared from buffy coats of at least two donors using a standard Ficoll centrifugation protocol. Isolated PBMCs were resuspended in RPMI medium supplemented with 10% human AB serum and 2×10^5 cells/well were dispensed into 384-well plates containing compounds (70 μL total volume). After overnight incubation, 10 μL of supernatant was transferred to 384-well plates containing 5×10^3 HEK-ISREluc cells/well in 30 μL (plated the day before). Following 24 hours of incubation, activation of the ISRE elements was measured by assaying luciferase activity using 40 μL/well Steady Lite Plus substrate (Perkin Elmer) and measured with ViewLux ultraHTS microplate imager (Perkin Elmer). The stimulating activity of each compound on the HEK-ISREluc cells was reported as LEC value, defined as the compound concentration applied to the PBMCs resulting in a luciferase activity at least two fold above the standard deviation of the assay. The LEC in turn indicates the degree of ISRE activation on transfer of a defined amount of PBMC culture medium. Recombinant interferon α-2a (Roferon-A) was used as a standard control compound.

[3] = biological target: T2, human TLR8 (Homo sapiens, UniProt Q9NR97); experiment: TLR8 cellular reporter assay (HEK293, NFκB-luc); type: cell-based; conditions: HEK293 cells transfected with CMV-TLR8 and NFκB-luc, 6 hours incubation; lowest effective concentration
T2 construct: expressed in transfected cells; host or cells: HEK293 cells, transient transfection with TLR8 plasmid and NFκB-luc plasmid
T2 sequence (Q9NR97 27-1041): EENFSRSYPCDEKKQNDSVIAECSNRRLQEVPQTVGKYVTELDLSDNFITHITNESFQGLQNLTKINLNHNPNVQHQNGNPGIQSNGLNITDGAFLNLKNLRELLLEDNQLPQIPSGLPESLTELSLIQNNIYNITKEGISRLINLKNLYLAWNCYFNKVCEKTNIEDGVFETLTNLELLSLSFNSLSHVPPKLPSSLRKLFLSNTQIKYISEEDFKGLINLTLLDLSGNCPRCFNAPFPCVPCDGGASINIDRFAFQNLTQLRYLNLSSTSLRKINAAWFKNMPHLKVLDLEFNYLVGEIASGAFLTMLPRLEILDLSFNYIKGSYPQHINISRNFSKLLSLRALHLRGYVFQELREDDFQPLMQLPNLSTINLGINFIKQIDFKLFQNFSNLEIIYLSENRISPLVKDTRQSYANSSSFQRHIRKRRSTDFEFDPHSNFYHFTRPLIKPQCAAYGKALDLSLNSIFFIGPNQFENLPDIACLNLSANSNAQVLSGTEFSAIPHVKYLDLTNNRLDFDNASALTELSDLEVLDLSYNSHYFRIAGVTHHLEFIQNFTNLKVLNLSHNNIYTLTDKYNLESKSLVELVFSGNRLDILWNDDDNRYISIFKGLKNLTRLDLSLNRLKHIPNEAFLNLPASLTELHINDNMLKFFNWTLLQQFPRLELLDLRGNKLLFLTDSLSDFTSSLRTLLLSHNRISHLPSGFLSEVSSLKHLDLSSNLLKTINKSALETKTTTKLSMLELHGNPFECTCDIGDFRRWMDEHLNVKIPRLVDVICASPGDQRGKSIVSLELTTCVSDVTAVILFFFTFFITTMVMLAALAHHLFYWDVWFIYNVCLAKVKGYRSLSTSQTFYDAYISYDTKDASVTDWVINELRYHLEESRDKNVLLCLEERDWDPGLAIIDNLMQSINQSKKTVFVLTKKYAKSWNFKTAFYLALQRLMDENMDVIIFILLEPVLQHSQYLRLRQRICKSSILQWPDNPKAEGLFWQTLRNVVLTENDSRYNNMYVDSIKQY
Experimental: as §1, §2

Row | SMILES | TLR7 LEC [1] [µM] | minimal effective concentration [2] [µM] | TLR8 LEC [3] [µM] | PBMC LEC [2] [µM]
1 | CCC[C@@H](CCO)Nc1nc(N)nc2ccn(Cc3ccncc3)c12 [Compound 39] | 0.17 | 0.009 | >25 | –
2 | CCCC[C@@H](CCO)Nc1nc(N)nc2ccn(Cc3ccncc3)c12 [Compound 40] | 0.12 | 0.004 | 24.61 | –
3 | CCCCNc1nc(N)nc2ccn(Cc3ccc(OC)cc3)c12 [Compound 41] | 0.09 | 0.11 | >25 | –
4 | CCCCNc1nc(N)nc2ccn(Cc3ccc(F)cc3)c12 [Compound 42] | 0.28 | 0.16 | >25 | –
5 | CCCCNc1nc(N)nc2ccn(Cc3ccccc3F)c12 [Compound 43] | 0.11 | 0.17 | >25 | –
6 | CC(CNc1nc(N)nc2ccn(Cc3ccccc3)c12)C1CC1 (stereo not drawn) [Compound 44] | 1.51 | 2.45 | >25 | –
7 | Nc1nc(NCc2ccoc2)c2c(ccn2Cc2ccccc2)n1 [Compound 45] | 19.9 | 0.74 | >25 | –
8 | CC1CC1CNc1nc(N)nc2ccn(Cc3ccccc3)c12 (stereo not drawn) [Compound 46] | 0.83 | 0.17 | >25 | –
9 | CC(C)=CCNc1nc(N)nc2ccn(Cc3ccccc3)c12 [Compound 47] | 17.5 | 1.79 | >25 | –
10 | Cc1cc(CNc2nc(N)nc3ccn(Cc4ccccc4)c23)no1 [Compound 48] | 0.05 | 0.03 | >25 | –
11 | Cn1ccc(CNc2nc(N)nc3ccn(Cc4ccccc4)c23)n1 [Compound 49] | 22.43 | 2.34 | >25 | –
12 | CCCCNc1nc(N)nc2ccn(Cc3cc4ccccc4cn3)c12 [Compound 50] | 1.01 | 0.13 | >25 | –
13 | CC(C)CCNc1nc(N)nc2ccn(Cc3ccccc3)c12 [Compound 51] | 5.14 | 0.59 | >25 | –
14 | CCCCNc1nc(N)nc2ccn(CC3CCCCC3)c12 [Compound 52] | 0.12 | 0.09 | >25 | –
15 | CCCCNc1nc(N)nc2ccn(CC3CC3)c12 [Compound 53] | 0.38 | 0.07 | >25 | –
16 | CCCCNc1nc(N)nc2c(C)cn(Cc3ccccc3)c12 [Compound 54] | 1.68 | 0.9 | >25 | –
17 | CCCCNc1nc(N)nc2ccn(Cc3ncccn3)c12 [Compound 56] | 0.99 | 0.07 | 17.5 | –
18 | CCCCNc1nc(N)nc2c(C)cn(Cc3ccccc3)c12 [Compound 58] | 0.24 | – | >25 | 0.90
19 | Nc1nc(NCc2nccs2)c2c(ccn2Cc2ccccc2)n1 [Compound 60] | 0.39 | 0.33 | >25 | –
20 | Nc1nc(NCc2ccccn2)c2c(ccn2Cc2ccccc2)n1 [Compound 61] | 1.01 | 1.95 | >25 | –
21 | CCCCNc1nc(N)nc2ccn(CC3CCC3)c12 [Compound 62] | 0.06 | 0.06 | 0.9934 | –
22 | CCCCNc1nc(N)nc2cc(C)n(Cc3ccccc3)c12 [Compound 63] | 0.67 | 0.18 | >25 | –
23 | CCCCNc1nc(N)nc2ccn(Cc3nccc4ccccc34)c12 [Compound 65] | 0.1687 | 0.08 | >25 | –
24 | CCCCNc1nc(N)nc2ccn(CCn3cccc3)c12 [Compound 66] | 2.57 | 0.91 | 3.96 | –
25 | CCCCNc1nc(N)nc2ccn(CCN3CCOCC3)c12 [Compound 67] | 0.056 | 0.04 | 6.71 | –
26 | CCCCNc1nc(N)nc2ccn(Cc3ccccc3OC)c12 [Compound 69] | 0.004 | 0.002 | 0.71 | –
27 | CCCCNc1nc(N)nc2ccn(CC3CCCO3)c12 (stereo not drawn) [Compound 71] | 0.32 | 0.24 | 4.68 | –
28 | CCCCNc1nc(N)nc2ccn(Cc3cccs3)c12 [Compound 73] | 0.28 | 0.13 | >25 | –
